Source: patent US20220380829A1, “Method of Diagonosizing Pathogens and their Antimicrobial Susceptibility” (HANGZHOU DIAN MEDICAL LABORATORY CO., LTD., priority 2019, published 2022)

Test system: Candida tropicalis
Experiment: Broth microdilution (M27-A3, M27-S4), gold standard culture-based AST
Format: cell-based

## OC(Cn1cncn1)(Cn1cncn1)c1ccc(F)cc1F [FLU]
blind-1
  Resistance profiles by broth microdilution (the gold standard): R
blind-2
  Resistance profiles by broth microdilution (the gold standard): S
blind-3
  Resistance profiles by broth microdilution (the gold standard): R
blind-4
  Resistance profiles by broth microdilution (the gold standard): R
blind-5
  Resistance profiles by broth microdilution (the gold standard): S
blind-6
  Resistance profiles by broth microdilution (the gold standard): S
